Where “and” joins values, the source holds several entries; their conditions need not be identical. Equal values may be shown once. Values belong to the compound of their own block, whether it stands above or below them.
Experiments:
[1] = Transdermal penetration study of Mx released by Mx-COL-MBs (Franz diffusion cell); type: in vitro ADME, porcine; settings: Mx 0.3 mg/ml; for Amount of skin penetration (cumulative Mx penetration amount): 18th hour; for Amount of total penetration: 18 hours; for Amount of skin absorption: after 18 hours
Method: Transdermal Penetration Study of Mx Released by Mx-COL-MBs
The procedures of the study included: interposing a piece of 3 mm-thick porcine ear skin between a donor cell and a receptor cell of the Franz diffusion cell at a temperature of 37±0.5° C. 1 ml of any one of the abovementioned 6 solutions was applied to the donor cell facing the stratum corneum (SC) side, enabling the MB, Mx, or Mx-COL-MB to penetrate the Parafilm on a bottom of the donor cell and reach the skin. Besides, the receptor cell facing the dermis side was filled with 12 ml of PBS at pH 7.4, accompanied with magnetic stirring at the rate of 600 rpm and 0.01% gentamicin to prevent bacterial degradation of the Mx during the penetration process. At the 0.5th hr, a 1-MHz ultrasound sonicator was positioned 3 mm from the top of the skin, and the skin was sonicated at a power density of 3 W/cm^2 for 1 min. At the time intervals of 0.5, 1, 2, 3, 4, 5, 6, 8, 12 and 18 hours, 1 ml of receptor solution sample filtered by 0.2-μm pores was extracted from the receptor cell to measure the Mx content in the receptor solution, with the receptor solution refilled each time with the same volume of PBS. After 18 hours, the porcine skin sample was washed and then homogenized with 1 ml of the receptor solution. The supernatant was centrifuged to acquire further supernatant to measure the absorbed amount of Mx in the porcine ear skin.

[2] = tested on: C57BL/6 mice; experiment: Study of animal hair growth (skin luminosity of shaved back); type: in vivo; settings: for number of mice with significantly lower skin luminosity: day 10, Mx 0.3 mg/ml topical; for hair growth rate: day 16, Mx 0.3 mg/ml
Method: Study of Animal Hair Growth
The study utilized 6-week-old C57BL/6 mice weighing 20-25 g, which were shaved at an area of about 10 cm^2 in the back at 8 weeks old, when all of the hair follicles were synchronized in the telogen phase. […] Among all groups, the US treatment was applied at 3 W/cm^2 for 1 min, and the concentration of Mx was 0.3 mg/ml (i.e. 0.5 ml/cm^2) in all groups. The change in skin luminosity of the shaved area was assessed using the Chroma Meter. The hair growth rate was calculated according to the following equation: Hair growth rate (%)=(L1−Ln)/L1×100%
where L1 is the luminosity index of the shaved area, and Ln is the luminosity index of the area at different time intervals.

[3] = Study of transdermal penetration depth (FITC); settings: 0.1 mg FITC, retained 6 hr on porcine ear skin
Method: Study of Transdermal Penetration Depth
Each group contained 0.1 mg FITC (fluorescein isothiocyanate), and was uniformly loaded onto the porcine ear skin with an area of 4.5 cm^2 and a thickness of 3 mm, sonicated by the 1-MHz ultrasound sonicator successively at power density of 3 W/cm^2, with each sonication period of 1 min. After sonication, the FITC (and the MBs) retained on the porcine ear skin for 6 hr, and was then washed away.
FIG. 7A-7C are bright-field images, and FIG. 7D-7F are dark-field fluorescent images.

[4] = with ultrasound treatment 3 W/cm^2, 1 min
[5] = with US treatment 3 W/cm^2, 1 min

Amount of skin penetration (cumulative Mx penetration amount) [1, 4]: 113.0 ± 6.0 µg/mL and 113.01 ± 5.95 µg/mL
Amount of total penetration [1, 4]: 126.04 ± 7.52 µg/mL
Amount of skin absorption [1, 4]: 33.02 ± 1.56 µg/mL
Compound: Nc1cc(N2CCCCC2)nc(N)[n+]1[O-] [Comparative example 8, Minoxidil]
number of mice with significantly lower skin luminosity [2, 5]: 1
hair growth rate [2, 5]: 64.5%

Compound: fluorescein isothiocyanate [Comparative example 7]
penetration depth of FITC ([3]; with US treatment 1 MHz, 3 W/cm^2, 1 min): 405±23 μm

Compound: fluorescein isothiocyanate [Comparative example 6]
penetration depth of FITC ([3]; without US treatment): 312±19 μm

Amount of skin penetration (cumulative Mx penetration amount) ([1]; without ultrasound treatment): 103.1 ± 0.5 µg/mL and 103.1 ± 0.51 µg/mL
Amount of total penetration ([1]; without ultrasound treatment): 155.54 ± 10.05 µg/mL
Amount of skin absorption ([1]; without ultrasound treatment): 52.42 ± 9.55 µg/mL
Compound: Nc1cc(N2CCCCC2)nc(N)[n+]1[O-] [Comparative example 4, Minoxidil]
number of mice with significantly lower skin luminosity ([2]; without US treatment): 1
hair growth rate ([2]; without US treatment): 45.5%

From US9974787B2, “Modified albumin microbubble” (National Taiwan University of Science and Technology, priority 2016, dated 2018)
